Results published in US20070166547A1, “Use of a layer consisting of hydrophobic linear, or two-dimensional polycyclic aromatics as a barrier layer or an encapsulation and electric components constructed with a layer of this type and comprising organic polymers” (priority 2003, published 2007).

Experiments:
[1] = tested on: adenosine-sensitive receptors of thrombocytes; test: ADP-induced aggregation of thrombocytes in vitro (Born method); format: cell-based, rabbit; conditions: 3 min incubation, ADP 10^−5 M
Protocol: The compounds according to the invention were studied for the effect of aggregation of thrombocytes induced by a preliminary introduction of a solution of an aggregation inductor with a competing introduction of the compounds according to the invention.
The aggregation of thrombocytes was studied by the Born method based on determination of the changes in the optical density of plasma enriched with thrombocytes after its incubation with an aggregation inductor.
Adenozinediphosphoric acid (ADP) was selected as an aggregation inductor, which in fact is an aggregation generator. Use was made of a sample (registration number 885) of the Sigma Diagnostics Company (USA) in final concentration of 10^−5 M.
The experiments were carried out on male rabbits of the “Chinchilla” breed having a mass of 2.7±0.3 kg. 18-24 hours prior to the experiment they were deprived of feed while preserving free access to water.
To obtain plasma enriched with thrombocytes, blood was taken from a cut of a marginal vein of the rabbit ear, the sample was stabilized with 3.8% of sodium citrate solution in a ratio of 9:1 and centrifuged at 200 g (1000 rev/min) for 10 minutes. The top supernatant layer enriched with thrombocytes was transferred by an automatic dropper into a silicone test tube and kept at 37° C. The plasma enriched with thrombocytes contained, on the average, […]. If this content exceeded the specified 3×10^8 blood platelets in 1 liter, this sample was diluted to the necessary concentration with plasma deprived of thrombocytes, which was obtained by centrifuging blood at 650 g during 10 minutes.
The measurements of the optical density of the samples were made on two-channel aggregometer of the “Chronolog” Company (USA). A flask containing 490 mkl of plasma rich with thrombocytes was placed in a device, into which a magnetic agitator covered with Teflon was lowered. The index of maximum amplitude of aggregation (MA) in percent of a fall of the plasma optical density under effect of the aggregation inductor was recorded. The control index MA of plasma was compared with the MA of plasma incubated for 3 minutes with different concentrations of the compounds: from 10^−3 to 10^−7 in vitro experiments or with plasma obtained 15, 30, 60 and 120 minutes after intravenous administration of different doses of the compounds in vivo experiments.
The process of aggregation of thrombocytes was recorded with the help of a computer; on the monitor screen the there were depicted curves reflecting changes of the optical density of the plasma enriched which was taken as a standard 100% compared to the optical density of the non-thrombocyte plasma taken for 0% content of thrombocytes.
Under in vitro conditions a flask was filled with blood plasma enriched with thrombocytes, to which an aggregation inductor ADP was added at a concentration of 10^−5 M, incubated for 3 minutes, and then the compounds according to the invention were introduced directly into the flask. Their action by aggregation of thrombocytes was studied after 3-minute incubation in a wide range of concentrations from 10^−3 to 10^−7 M to minimum concentration of 10^−7 M not inducing no effect of suppressing the aggregation.

[2] = tested on: synthase of nitrogen oxide (NOC); test: Morphine abstinence model: activity of synthase of nitrogen oxide (radiometric, [3H]L-citrulline); format: in vivo, rats Wistar; conditions: morphine alone
thymus = test: Morphine abstinence model: thymus condition; format: in vivo, rats; conditions: morphine alone
Protocol: The effect of the compounds according to the invention on the condition of the thymus of the rats was also investigated: a control group, an experimental group of morphinized animals and an experimental group of animals were first morphinized and then injected with the compounds according to the invention. The experiment was carried out similarly to that described above.

[3] = Polarographic study of electrochemical reduction (electrochemical activity); format: physicochemical; conditions: for i, mkA (polarographic wave current) / −E1/2, V (half-wave potential vs SCE): 37° C., forward trace, average for the group; for i, mkA (polarographic wave current): 9·10^−4 M
Protocol: The study was carried out on a general-purpose polarograph PU-1 with a two-coordinate recorder of the “LKD” type using a three-electrode thermostatically controlled polarographic cell and mercury dripping electrode (MDE) with forced separation of the drop and a dropping period of 0.5 second. A platinum wire was used as an auxiliary electrode and a saturated calomel electrode (SCE) was used as a control electrode.
2.0% solutions of sodium chloride having pH 7.0, 7.2, 7.4, 7.6 were used as a background; the pH values of the background solution were corrected by a solution of sodium hydroxide. The polarographic cell was filled with 5.0 ml of the background solution and for 5 minutes was purged with nitrogen for removing the dissolved oxygen. Then 0.5 ml of solution of the studied substance was added to the background solution, and the polarogram was recorded as a polarographic wave. The concentration of the compounds in the polarographic cell was 9·10^−4 M.
The pH was measured on the pH-meter with an accuracy of ±0.05 pH units. The polarographic measurements were carried out at a temperature of 37° C. The recording of polarograms of the investigated materials was effected under conditions of DC current at a scanning rate of the potential 10.0 mV/s with a active scanning stroke from a potential 0 to −0.5 V and sweep retrace from a −0.5 V to 0. The electric-current sensitivity was 5.0 mkA. The scale by the coordinate of the potentials was 50.0 mV/cm. The values of potentials of the half-wave E1/2 of the investigated materials are given with respect to the SCE potential.
The polarogram parameters such as a limiting current ilim and E1/2 were determined by the graphic method. The number of electrons participating in the reaction was calculated on the basis of the analysis of the polarographic wave using the Geirovsky-Ilkovich equation.

O=c1[nH]n([C@@H]2O[C@H](CO)[C@@H](O)[C@H]2O)c(=O)c2nccc(O)c12.[Na].[Na] [Compound 4, disodium salt of 4-hydroxy-7-(βD-ribofuranosile)pyrido[2,3-d]-6H-pyridazine-5,8-dione]
MA - fall of optical density of plasma, % to the standard ([1]; 10^−3 M): 49.2 ± 2.3 %
MA - fall of optical density of plasma, % to the standard ([1]; 10^−4 M): 50.2 ± 2.0 %
MA - fall of optical density of plasma, % to the standard ([1]; 10^−5 M): 46.2 ± 3.1 %
MA - drop of optical density, % compared to control ([1]; 10^−6 M): 50.6 ± 3.1%
MA - drop of optical density, % compared to control ([1]; 10^−7 M): 49.9 ± 3.4%

O=c1[nH]n([C@@H]2O[C@H](CO)[C@@H](O)[C@H]2O)c(=O)c2ccccc12.[Na] [Compound 9, sodium salt of 2-(β-D-ribofuranosile)benzo[d]-3H-pyridazine-1,4-dione]
MA - fall of optical density of plasma, % to the standard ([1]; 10^−3 M): 47.3 ± 2.0 %
MA - fall of optical density of plasma, % to the standard ([1]; 10^−4 M): 53.1 ± 1.8 %
MA - fall of optical density of plasma, % to the standard ([1]; 10^−5 M): 41.4 ± 3.4 %
MA - drop of optical density, % compared to control ([1]; 10^−6 M): 49.4 ± 3.2%
MA - drop of optical density, % compared to control ([1]; 10^−7 M): 51.2 ± 1.7%

Nc1cnc2c(=O)[nH][nH]c(=O)c2n1.[Na] [Compound 28, sodium salt of 2-amino-pyrazine[2,3-d]-6H-pyridazine-5,8-dione]
MA - fall of optical density of plasma, % to the standard ([1]; 10^−3 M): 49.7 ± 2.2 %
MA - fall of optical density of plasma, % to the standard ([1]; 10^−4 M): 48.9 ± 2.4 %
MA - fall of optical density of plasma, % to the standard ([1]; 10^−5 M): 44.2 ± 2.7 %
MA - drop of optical density, % compared to control ([1]; 10^−7 M): 50.4 ± 3.0%

Nc1ncnc2c(=O)n([C@@H]3O[C@H](CO)[C@@H](O)[C@H]3O)[nH]c(=O)c12.[Na] [Compound 31, sodium salt of 4-amino-7-(β-D-ribofuranosile)pyrimido[4,5-d]-6H-pyridazine-5,8-dione]
MA - fall of optical density of plasma, % to the standard ([1]; 10^−3 M): 44.9 ± 2.3 %
MA - fall of optical density of plasma, % to the standard ([1]; 10^−4 M): 46.7 ± 2.2 %
MA - fall of optical density of plasma, % to the standard ([1]; 10^−5 M): 39.9 ± 2.1 %
MA - drop of optical density, % compared to control ([1]; 10^−6 M): 47.5 ± 1.7 %
MA - drop of optical density, % compared to control ([1]; 10^−7 M): 49.5 ± 1.2%

CN1CC[C@]23c4c5ccc(O)c4O[C@H]2[C@@H](O)C=C[C@H]3[C@H]1C5 [Morphine, reference compound]
activity of the calcium-dependent form NOC in the liver [2]: rise of activity of the calcium-dependent form NOC
activity of the calcium-independent form NOC in the liver [2]: decrease of activity of the calcium-independent form NOC
Nitrites, thymus Supernatant, Administration of morphine (thymus): 0.511 ± 0.05 nmol/mg of protein
Thymus mass, Administration of morphine (thymus): 145 ± 9 mg

sodium salt of 5-amino-2-(CP(β-D-ribofuranosile)benzo[d]-3H-pyridazine-1,4-dione [Compound 10]
number of electrons participating in the reduction ([3]; calculated with the Geirovsky-Ilkovich equation): 4.09
i, mkA (polarographic wave current) ([3]; pH 7.0): 0.23 ± 0.03 mkA
−E1/2, V (half-wave potential vs SCE) ([3]; pH 7.0): 0.092 ± 0.02 V
i, mkA (polarographic wave current) ([3]; pH 7.2): 0.30 ± 0.01 mkA
−E1/2, V (half-wave potential vs SCE) ([3]; pH 7.2): 0.09 ± 0.01 V
i, mkA (polarographic wave current) ([3]; pH 7.4): 0.29 ± 0.02 mkA
−E1/2, V (half-wave potential vs SCE) ([3]; pH 7.4): 0.092 ± 0.02 V
i, mkA (polarographic wave current) ([3]; pH 7.6): 0.31 ± 0.02 mkA
−E1/2, V (half-wave potential vs SCE) ([3]; pH 7.6): 0.09 ± 0.01 V
half-wave potential more positive on reverse stroke than on forward stroke ([3]; reverse stroke vs forward stroke): 30.0 mV
MA - fall of optical density of plasma, % to the standard ([1]; 10^−3 M): 46.2 ± 2.7 %
MA - fall of optical density of plasma, % to the standard ([1]; 10^−4 M): 48.7 ± 2.4 %
MA - fall of optical density of plasma, % to the standard ([1]; 10^−5 M): 40.2 ± 4.0 %
MA - drop of optical density, % compared to control ([1]; 10^−6 M): 48.4 ± 2.4%
MA - drop of optical density, % compared to control ([1]; 10^−7 M): 49.8 ± 2.0%
